This is an account of results in patent publication US20240174728A1, “A USE OF A POLYPEPTIDE COMPOUND IN THE PREPARATION OF DRUGS FOR PREVENTING OR TREATING INFLAMMATORY BOWEL DISEASES AND RELATED INTESTINAL FIBROSIS” (Shenzhen Turier Biotech Co., Ltd., priority 2021, published 2024).

Starred links: 1 amine or outer side, 2 acyl side, 3 side chain; linkers in the order of their positions; H or OH if unused. Non-standard residues stand in square brackets, D forms with d. Groups on a side chain read outwards from the residue. Primed or numbered codes have the meaning given here. No end group written: not given here. *: point of attachment. C20 diacid = O=C(O)CCCCCCCCCCCCCCCCCCC(=O)*; Arachidoyl = CCCCCCCCCCCCCCCCCCCC(=O)*; γGlu = O=C(O)[C@H](CCC(=O)[*:2])N[*:1]; Iva = CC[C@](C)(N)C(=O)O; PEG2′ = not defined here; Aib = CC(C)(N)C(=O)O

Experiment [1] concerns DSS induced chronic intestinal fibrosis model of mouse. Briefly: DSS induced chronic intestinal fibrosis model of mouse (Example 3, three cycles). It counts as in vivo, Balb/c mice. To be noted: 2% DSS 5 days then water 2 weeks, 3 cycles, 120 μg/kg s.c. once/day, compared with model group; for blue staining area of colon tissues, area ratio of blue collagen fibers to colon tissue in Masson staining (FIG. 11B): #P≤0.05, ##P≤0.01; for content of serum IL-6 (FIG. 13) / content of serum MMP-8 (FIG. 13): serum at end of three cycles. The text has this:
(§1) After 7 days of adaptive feeding, 114 Balb/c mice of 6-8 weeks age (purchased from Guangdong Medical Laboratory Animal Center, with weight approx. 16-20 g) are subjected to the experiment. Then randomly put the mice into 19 groups, with 6 mice in each group. The groups are normal group, model group, 6-TG group and polypeptide compound groups 1-16.
In the whole process, the normal group is given normal drinking water and is given subcutaneous injection PBS once every day. The model group is first given 2% DSS for 5 days and then given normal drinking water for 2 weeks. This is 1 cycle. The cycle is done 3 times. Subcutaneous injection of PBS is given once every day. The 6-TG group is first given 2% DSS for 5 days and then given normal drinking water for 2 weeks. This is 1 cycle. The cycle is done 3 times. 2 mg/kg 6-TG is given by the means of gavage once every day. The polypeptide compound groups 1-16 are first given 2% DSS for 5 days and then given normal drinking water for 2 weeks. This is 1 cycle. The cycle is done 3 times. Subcutaneous injection of 120 μg/kg polypeptide compounds 1-16 is given once every day.
During the administration period, the polypeptide compound groups 3, 8, 11, 12, 13 and 14 and the normal group, model group and 6-TG group are randomly selected, and the body weight, feces consistency and feces OB of the mice are recorded every day. The GraphPad Prism 8.3.0 software is used to plot the data into a diagram.
After completion of the 3rd cycle, the mice are dissected. The serums and colon tissues of the mice are collected. The colon and cecum are removed together. The colon length is measured. The GraphPad Prism 8.3.0 software is used to plot the data into a diagram.
The serums of the mice from the randomly selected polypeptide compound groups 3, 8, 11, 12, 13 and 14 and the normal group and model group of the present invention are used for cytokine test.
The colons of the mice from the randomly selected polypeptide compound groups 3, 8, 11, 12, 13 and 14 and the normal group and model group in the present invention are taken. Approx. 5 mm of intestinal segment is taken from the distal end of each colon and is fixed in 10% formalin. The specimens are fixed, dehydrated, wrapped in paraffin and sliced (5 μm). Then tissue HE staining, Masson staining and Fibronectin protein immunohistochemical staining are completed.

In experiment [2] the test system is DSS induced acute intestinal fibrosis model of mouse. Briefly: DSS induced acute intestinal fibrosis model of mouse (Example 2). To be noted: 3% DSS Day 1-7, compared with model group; for content of serum IL-6 (FIG. 7) / content of serum MMP-12 (FIG. 7) / collagenous fiber of colon tissues, Masson stained slice (FIG. 4A) / colon Ly-6g+ cells (neutrophile granulocyte infiltration), immunohistochemical staining (FIG. 6) / colon mucous layer α-SMA protein expression, immunohistochemical staining (FIG. 5): 120 μg/kg s.c. once/day; for content of serum IL-6 (FIG. 7) / content of serum MMP-12 (FIG. 7): 9th day serum, ##P≤0.01; for colon tissue morphology, HE stained slice (FIG. 3) / blue staining area of colon tissues, area ratio of blue collagen fibers to colon tissue in Masson staining (FIG. 4B): polypeptide 120 μg/kg s.c. or 6-TG 2 mg/kg p.o. once/day; for blue staining area of colon tissues, area ratio of blue collagen fibers to colon tissue in Masson staining (FIG. 4B): #P≤0.05. The class given is in vivo, Balb/c mice.
Text: The DSS in this example is purchased from MP Biomedicals (CAS No.: 9011-18-1), and the positive control compound 6-thioguanine (6-TG) is a compound based on prior art and is purchased from Shanghai Aladdin Biochemical Technology Co., Ltd. (CAS No.: 154-42-7).
as §1
Model the 19 groups of mice and administer the drug to them for 8 days. In the 8 days, the normal group is given normal drinking water and is given subcutaneous injection of PBS once every day. From Day 1 to Day 7, the model group drinks 3% DSS and is given subcutaneous injection of PBS once every day. On Day 8, 3% DSS is replaced with normal drinking water and subcutaneous injection of PBS is given once. From Day 1 to Day 7, the 6-TG group drinks 3% DSS and is given 2 mg/kg 6-TG by the means of gavage once every day. On Day 8, 3% DSS is replaced with normal drinking water and 2 mg/kg 6-TG is given by the means of gavage once. From Day 1 to Day 7, the polypeptide compound groups 1-16 drink 3% DSS and are given subcutaneous injection of 120 μg/kg polypeptide compounds 1-16 once every day. On Day 8, 3% DSS is replaced with normal drinking water and subcutaneous injection of 120 μg/kg polypeptide compounds 1-16 is given once.
In the drug administration period, the randomly selected polypeptide compound groups 3, 8, 11, 12, 13 and 14 and the normal group, model group and 6-TG group are used for testing, and the body weight, feces consistency and feces OB of the mice are recorded every day. The GraphPad Prism 8.3.0 software is used to plot the data into a diagram. Feces OB is measured by the benzidine method.
On the 9th day, all mice are killed. The serums and colon tissues of the mice are collected. The colon and cecum of the mice are removed together. The colon length is measured. The GraphPad Prism 8.3.0 software is used to plot the data into a diagram.
The serums of the mice from the randomly selected polypeptide compound groups 3, 8, 11, 12, 13 and 14 of the present invention and the normal group and model group are used for cytokine test.
The colons of the mice from the randomly selected polypeptide compound groups 3, 8, 11, 12, 13 and 14 and the normal group, model group and 6-TG group in the present invention are taken. Approx. 5 mm of intestinal segment is taken from the distal end of each colon and is fixed in 10% formalin. The specimens are fixed, dehydrated, wrapped in paraffin and sliced (5 μm). Then tissue HE staining, Masson staining, α-SMA α-SMA protein immunohistochemical staining and Ly-6g protein immunohistochemical staining are completed.

For “His-(D-Ser)-Gln-Gly-Thr-Phe-Thr-Ser-Asp-Lys(PEG2-PEG2-γGlu-CO(CH2)18CO2H)-Ser-Lys-Tyr-Leu-Asp-Glu-Arg-Ala-Ala-Gln-Asp-Phe-Iva-Gln-Trp-Leu-Leu-Asp-Gly-Gly-Pro-Ser-Ser-Gly-Aib-Pro-Pro-Pro-Ser-NH2 (H[dS]QGTFTSDK([PEG2′-PEG2′-γGlu-C20 diacid])SKYLDERAAQDF[Iva]QWLLDGGPSSG[Aib]PPPS-NH2) [Compound 12]”, in experiment [1], the “collagenous fiber of colon tissues, Masson stained slice (FIG. 11A)” value (from here on “collagenous fiber … (FIG. 11A)”) was “noticeably decrease”; the “colon mucous layer Fibronectin protein expression, immunohistochemical staining (FIG. 12)” value is given as “clearly decreased”; the “colon tissue morphology, HE stained slice (FIG. 10)” value (shortened to “colon tissue morphology … (FIG. 10)”) is “become intact”; the “blue staining area of colon tissues, area ratio of blue collagen fibers to colon tissue in Masson staining (FIG. 11B)” value is “noticeably decrease”. Besides, in experiment [1], the “content of serum IL-6 (FIG. 13)” value is “clearly decreases” and the “content of serum MMP-8 (FIG. 13)” value was “clearly decreases”. Also, in experiment [2], the “content of serum IL-6 (FIG. 7)” value is “clearly decreases”; the “content of serum MMP-12 (FIG. 7)” value is reported as “clearly decreases”; the “collagenous fiber of colon tissues, Masson stained slice (FIG. 4A)” value (“collagenous fiber of colon tissues … (FIG. 4A)” below) was “noticeably decrease”; the “colon Ly-6g+ cells (neutrophile granulocyte infiltration), immunohistochemical staining (FIG. 6)” value (“colon Ly-6g+ cells” for short) is reported as “clearly decrease”. Moreover, in experiment [2], the “colon mucous layer α-SMA protein expression, immunohistochemical staining (FIG. 5)” value is given as “clearly decreased”; the “colon tissue morphology, HE stained slice (FIG. 3)” value (“colon tissue morphology … (FIG. 3)” below) is recorded as “become intact”; the “blue staining area of colon tissues, area ratio of blue collagen fibers to colon tissue in Masson staining (FIG. 4B)” value is “noticeably decrease”.

Take “His-(D-Ser)-Gln-Gly-Thr-Phe-Thr-Ser-Asp-Lys(PEG2-PEG2-γGlu-CO(CH2)18CO2H)-Ser-Lys-Tyr-Leu-Glu-Aib-Lys-Ala-Ala-Gln-Asp-Phe-Val-Glu-Trp-Leu-Lys-Ala-Gly-Gly-Pro-Ser-Ser-Gly-Ala-Pro-Pro-Pro-Ser-NH2 (H[dS]QGTFTSDK([PEG2′-PEG2′-γGlu-C20 diacid])SKYLE[Aib]KAAQDFVEWLKAGGPSSGAPPPS-NH2) [Compound 3]”: in experiment [1], the “collagenous fiber … (FIG. 11A)” value is on record as “noticeably decrease”; the “colon mucous layer Fibronectin protein expression, immunohistochemical staining (FIG. 12)” value is recorded as “clearly decreased”; the “colon tissue morphology … (FIG. 10)” value is on record as “become intact”; the “blue staining area of colon tissues, area ratio of blue collagen fibers to colon tissue in Masson staining (FIG. 11B)” value is listed as “noticeably decrease”. For the same substance, in experiment [1], the “content of serum IL-6 (FIG. 13)” value was “clearly decreases” and the “content of serum MMP-8 (FIG. 13)” value is on record as “clearly decreases”. Also, in experiment [2], the “content of serum IL-6 (FIG. 7)” value is listed as “clearly decreases”; the “content of serum MMP-12 (FIG. 7)” value is reported as “clearly decreases”; the “collagenous fiber of colon tissues … (FIG. 4A)” value was “noticeably decrease”; the “colon Ly-6g+ cells” value is given as “clearly decrease”. Besides, in experiment [2], the “colon mucous layer α-SMA protein expression, immunohistochemical staining (FIG. 5)” value is “clearly decreased”; the “colon tissue morphology … (FIG. 3)” value is “become intact”; the “blue staining area of colon tissues, area ratio of blue collagen fibers to colon tissue in Masson staining (FIG. 4B)” value was “noticeably decrease”.

Consider “His-Aib-Gln-Gly-Thr-Phe-Thr-Ser-Asp-Lys(PEG2-PEG2-CO(CH2)18CH3)-Ser-Lys-Tyr-Leu-Asp-Glu-Arg-Ala-Ala-Gln-Asp-Phe-Iva-Gln-Trp-Leu-Leu-Asp-Gly-Gly-Pro-Ser-Ser-Gly-Aib-Pro-Pro-Pro-Ser-NH2 (H[Aib]QGTFTSDK([PEG2′-PEG2′-Arachidoyl])SKYLDERAAQDF[Iva]QWLLDGGPSSG[Aib]PPPS-NH2; not fully specified; printed as His-Aib-Gln-Gly-Thr-Phe-Thr-Ser-Asp-Lys(PEG2-PEG2-CO(CH2)18CH3)-Ser-Lys-Tyr-Leu-Asp-Glu-Arg-Ala-Ala-Gln-Asp-Phe-Iva-Gln-Trp-Leu-Leu-Asp-Gly-Gly-Pro-Ser-Ser-Gly-Aib-Pro-Pro-Pro-Ser-NH2) [Compound 11]”, for which, in experiment [1], the “collagenous fiber … (FIG. 11A)” value is given as “noticeably decrease”; the “colon mucous layer Fibronectin protein expression, immunohistochemical staining (FIG. 12)” value was “clearly decreased”; the “colon tissue morphology … (FIG. 10)” value is “become intact”; the “blue staining area of colon tissues, area ratio of blue collagen fibers to colon tissue in Masson staining (FIG. 11B)” value is reported as “noticeably decrease”. Also, in experiment [1], the “content of serum IL-6 (FIG. 13)” value was “clearly decreases” and the “content of serum MMP-8 (FIG. 13)” value is listed as “clearly decreases”. Also, in experiment [2], the “content of serum IL-6 (FIG. 7)” value is “clearly decreases”; the “content of serum MMP-12 (FIG. 7)” value was “clearly decreases”; the “collagenous fiber of colon tissues … (FIG. 4A)” value is “noticeably decrease”; the “colon Ly-6g+ cells” value was “clearly decrease”. Also, in experiment [2], the “colon mucous layer α-SMA protein expression, immunohistochemical staining (FIG. 5)” value is reported as “clearly decreased”; the “colon tissue morphology … (FIG. 3)” value is “become intact”; the “blue staining area of colon tissues, area ratio of blue collagen fibers to colon tissue in Masson staining (FIG. 4B)” value is listed as “noticeably decrease”.

“His-Aib-Gln-Gly-Thr-Phe-Thr-Ser-Asp-Lys(PEG2-PEG2-γGlu-CO(CH2)18CO2H)-Ser-Lys-Tyr-Leu-Asp-Glu-Arg-Ala-Ala-Gln-Asp-Phe-Iva-Gln-Trp-Leu-Leu-Asp-Gly-Gly-Pro-Ser-Ser-Gly-Aib-Pro-Pro-Pro-Ser-NH2 (H[Aib]QGTFTSDK([PEG2′-PEG2′-γGlu-C20 diacid])SKYLDERAAQDF[Iva]QWLLDGGPSSG[Aib]PPPS-NH2) [Compound 8]”: in experiment [1], the “collagenous fiber … (FIG. 11A)” value is given as “noticeably decrease”; the “colon mucous layer Fibronectin protein expression, immunohistochemical staining (FIG. 12)” value was “clearly decreased”; the “colon tissue morphology … (FIG. 10)” value was “become intact”; the “blue staining area of colon tissues, area ratio of blue collagen fibers to colon tissue in Masson staining (FIG. 11B)” value is “noticeably decrease”. In experiment [1], the “content of serum IL-6 (FIG. 13)” value is reported as “clearly decreases” and the “content of serum MMP-8 (FIG. 13)” value is reported as “clearly decreases”. In experiment [2], the “content of serum IL-6 (FIG. 7)” value is recorded as “clearly decreases”; the “content of serum MMP-12 (FIG. 7)” value is listed as “clearly decreases”; the “collagenous fiber of colon tissues … (FIG. 4A)” value is given as “noticeably decrease”; the “colon Ly-6g+ cells” value was “clearly decrease”. In experiment [2], the “colon mucous layer α-SMA protein expression, immunohistochemical staining (FIG. 5)” value was “clearly decreased”; the “colon tissue morphology … (FIG. 3)” value was “become intact”; the “blue staining area of colon tissues, area ratio of blue collagen fibers to colon tissue in Masson staining (FIG. 4B)” value is recorded as “noticeably decrease”.
